Here are results for 33 compounds from ChEMBL document CHEMBL4038293, “Synthesis and SAR studies of 3,6-disubstituted indazole derivatives as potent hepcidin production inhibitors” (Bioorg Med Chem Lett, 2017).

Calls of active or inactive are those of the source. The rule behind the calls is not given here.

System in one data set: not listed separately
The experiment in a line: Metabolic stability in mouse liver microsomes assessed as compound remaining at 0.5 mg/mL after 0.5 hrs. The settings on record: read-out: Stability. The format is ADME, microsome.
As to `O=C(Nc1n[nH]c2cc(-c3ccc(O)cc3)ccc12)c1ccc(OCCN2CCOCC2)cc1`, the remaining at 0.5 h turned out to be 89%.

System in another data set: not listed separately
Put plainly: Cmax in C57BL/6J mouse at 30 mg/kg, ip. It counts as ADME, organism-based. Further details: dose 30 mg/kg, route intraperitoneal. Conditions: in vivo.
Compound `O=C(Nc1n[nH]c2cc(-c3ccc(O)cc3)ccc12)c1ccc(OCCN2CCOCC2)cc1` came in with a Cmax of 2640 ng/mL.

System in a further data set: not listed separately
The experiment in a line: Inhibition of BMP6/hemojuvelin signalling pathway in human HepG2 cells assessed as reduction in hepcidin mRNA expression. It counts as cell-based.
Settings: not given
As for `O=C(Nc1n[nH]c2cc(C3=CCC(O)CC3)ccc12)C1CC1` (centres undefined), the IC50 was over 30000 nM.

On to `O=C(Nc1n[nH]c2cc(-c3ccc(O)cc3)ccc12)c1ccccc1`, for which the IC50 is 470 nM.

In the case of `CN1CCN(c2ccc(C(=O)Nc3n[nH]c4cc(-c5ccc(O)cc5)ccc34)cc2)CC1`, the concentration for half-maximal inhibition (IC50) was 85 nM.

As for `Nc1n[nH]c2cc(-c3ccc(O)cc3)ccc12`, the IC50 came out at 1000 nM.

For the compound `O=C(Nc1n[nH]c2cc(-c3ccc(O)cc3)ccc12)C1CCCCC1`, the IC50 amounted to 930 nM.

Take `CN(C)CCOc1ccc(C(=O)Nc2n[nH]c3cc(-c4ccc(O)cc4)ccc23)cc1`: the IC50 is 160 nM.

Turning to `O=C(Nc1n[nH]c2ccc(-c3ccc4c(c3)CNC4)cc12)C1CC1`, the IC50 was 3100 nM.

Turning to `O=S(=O)(Nc1n[nH]c2cc(-c3ccc(O)cc3)ccc12)C1CC1`, the concentration for half-maximal inhibition (IC50) was over 10000 nM.

With `O=C(Nc1[nH]nc2cc(-c3ccc(O)nc3)ccc12)C1CC1`, the 50% inhibitory concentration (IC50) is over 30000 nM.

As to `O=C(Nc1n[nH]c2cc(-c3ccc(O)cc3)ccc12)c1ccc(OCCN2CCOCC2)cc1`, the IC50 amounted to 130 nM.

For `CC(=O)Nc1n[nH]c2cc(-c3ccc(O)cc3)ccc12`, the concentration for half-maximal inhibition (IC50) stood at 1100 nM.

As for `Oc1ccc(-c2ccc3cn[nH]c3c2)cc1`, the IC50 is over 3000 nM.

In the case of `O=C(O)c1ccc(-c2ccc3c(NC(=O)C4CC4)n[nH]c3c2)cc1`, the IC50 is over 10000 nM.

As for `O=C(Nc1n[nH]c2cc(-c3ccc(CO)cc3)ccc12)C1CC1`, the IC50 turned out to be 1400 nM.

For `O=C(Nc1n[nH]c2cc(-c3ccc(O)cc3)ccc12)c1ccc(Cl)cc1`, the 50% inhibitory concentration (IC50) came to 980 nM.

As for `O=C(Nc1n[nH]c2cc(-c3ccc(O)cc3)ccc12)NC1CC1`, the half-inhibitory concentration (IC50) came to 940 nM.

As for `O=C(NC1CC1)c1n[nH]c2cc(-c3ccc(O)cc3)ccc12`, the IC50 turned out to be 4200 nM.

In the case of `O=C(Nc1n[nH]c2cc(-c3cccc(O)c3)ccc12)C1CC1`, the IC50 amounted to 4900 nM.

Turning to `O=C(Nc1n[nH]c2cc(-c3ccccc3O)ccc12)C1CC1`, the IC50 was over 30000 nM.

Turning to `COc1ccccc1C(=O)Nc1n[nH]c2cc(-c3ccc(O)cc3)ccc12`, the IC50 was over 30000 nM.

Take `O=C(Nc1n[nH]c2cc(-c3ccc(O)cc3)ccc12)C1CC1`: the half-maximal inhibitory concentration (IC50) was 400 nM.

Take `CS(=O)(=O)Nc1ccc(-c2ccc3c(NC(=O)C4CC4)n[nH]c3c2)cc1`: the IC50 is over 30000 nM.

With `Nc1ccc(-c2ccc3c(NC(=O)C4CC4)n[nH]c3c2)cc1`, the IC50 was determined as 4500 nM.

As for `COc1cccc(C(=O)Nc2n[nH]c3cc(-c4ccc(O)cc4)ccc23)c1`, the IC50 was 700 nM.

As for `COc1ccc(C(=O)Nc2n[nH]c3cc(-c4ccc(O)cc4)ccc23)cc1`, the IC50 turned out to be 420 nM.

Turning to `O=C(Nc1n[nH]c2cc(Cc3ccc(O)cc3)ccc12)C1CC1`, the IC50 was over 30000 nM.

As for `CN(C)c1ccc(C(=O)Nc2n[nH]c3cc(-c4ccc(O)cc4)ccc23)cc1`, the concentration for half-maximal inhibition (IC50) turned out to be 330 nM.

On to `Oc1ccc(-c2ccc3c(NCC4CC4)n[nH]c3c2)cc1`, for which the 50% inhibitory concentration (IC50) came to 1600 nM.

Take `O=C(Nc1n[nH]c2cc(-c3ccc(O)cc3)ccc12)c1ccc(OCCN2CCCCC2)cc1`: the IC50 came out at 120 nM.

As to `COC(=O)c1ccc(C(=O)Nc2n[nH]c3cc(-c4ccc(O)cc4)ccc23)cc1`, the IC50 was 1100 nM.

System in the next data set: not listed separately
The experiment in a line: Tmax in C57BL/6J mouse at 30 mg/kg, ip. The format is ADME, organism-based. The settings on record: in vivo.
`O=C(Nc1n[nH]c2cc(-c3ccc(O)cc3)ccc12)c1ccc(OCCN2CCOCC2)cc1`: the Tmax was 1.33 h.

System in the next data set: not listed separately
Put plainly: Lipophilicity, log D of the compound. The format is physicochemical. Conditions: octanol/water.
`O=C(Nc1n[nH]c2cc(-c3ccc(O)cc3)ccc12)c1ccc(OCCN2CCOCC2)cc1` returned a logD of 3.4.

System in the next data set: not listed separately
The experiment in a line: AUC in C57BL/6J mouse at 30 mg/kg, ip. The format is ADME, organism-based. The settings on record: in vivo.
Take `O=C(Nc1n[nH]c2cc(-c3ccc(O)cc3)ccc12)c1ccc(OCCN2CCOCC2)cc1`: the AUC was 6930 ng·h/mL.

For another data set, the species on record is Homo sapiens. The experiment in a line: Inhibition of BMP6/hemojuvelin signalling pathway in human HepG2 cells assessed as reduction in hepcidin mRNA expression at 30 uM. It counts as cell-based.
Settings: not given
Regarding `O=C(Nc1n[nH]c2cc(-c3ccccc3)ccc12)C1CC1`, the inhibition is 23%.

With `O=C(Nc1n[nH]c2ccc(-c3ccccc3)cc12)C1CC1`, the inhibition was -4%.

For `O=C(Nc1n[nH]c2cccc(-c3ccccc3)c12)C1CC1`, the inhibition was determined as 8%.

The next data set deals with Mus musculus. Put plainly: Anti-inflammatory activity in C57BL/6J mouse assessed as reduction in IL-6 induced serum hepcidin level at 30 mg/kg, ip pretreated for 30 mins followed by IL-6 challenge measured after 4 hrs. The format is functional, organism-based.
Settings: not given
Take `O=C(Nc1n[nH]c2cc(-c3ccc(O)cc3)ccc12)c1ccc(OCCN2CCOCC2)cc1`: the result was Active.
